Results published in PubChem BioAssay AID2060336 (Molecular Pharmacology Branch, DTP, NCI, 2025).
pIC50: −log10 of the molar value. Several values for one entry are separate records, joined by “and”; a condition that tells them apart may be missing. Equal entries are not always repeated.

Tested on: 958767-090-R-J1-PDC spheroid growth
Experiment: Anticancer human tumor 958767-090-R-J1-PDC patient-derived head and neck squamous carcinoma cell line growth inhibition [IpAb]
Settings: spheroids with HUVEC and MSC; for viability, T/C: stronger effect = lower value
Excerpt: Combinatorial screen of targeted agents with ipatasertib and abemaciclib in multi-cell type tumor spheroids
A high-throughput screen of multi-cell type tumor spheroids was designed to identify active combinations of targeted small molecules and ipatasertib or abemaciclib. Complex spheroids include a stromal component modeled by human endothelial cells (HUVEC) and fibroblasts modeled by human mesenchymal stem cells (MSCs). The concentration ranges selected for each drug and investigational agent were based upon clinically achievable concentrations if the clinical Cmax of the agent was known.
Compounds. The drugs and investigational agents: ipatasertib (NSC767898), abemaciclib(NSC768073), selumetinib (NSC741078), trametinib (758246), adavosertib (NSC754352), everolimus (NSC733504), sapanisertib (NSC764658), vemurafenib (NSC761431), venetoclax (NSC766270), copanlisib (NSC809693), apelisib (NSC765974), palbociblib (NSC758247), vemurafenib (NSC761431), dabrafenib (NSC764134), ravoxertinib (NSC781343), BMS-387032 (NSC767048), sotorasib (NSC818433), talazoparib (NSC767125) and afursertib (NSC778305), were obtained from the National Cancer Institute (NCI) Developmental Therapeutics Program Chemical Repository. The FDA-approved anticancer drug set is available from the NCI Developmental Therapeutics Program. […] The stock solutions were prepared in dimethyl sulfoxide (DMSO, Sigma-Aldrich, St. Louis, MO, cat. D2650) at 800-fold the tested concentration and stored at -70 degrees C prior to their use. All drugs and investigational agents were tested over a range starting from a high concentration at or near the clinical Cmax and decreasing in half-log increments. If the clinical Cmax for an agent had not been determined, the highest concentration tested was 10 microM.
NCI60 Cell Culture. NCI60 cell lines were obtained from the NCI Developmental Therapeutics Program Tumor Repository. For each lot of cells, the Repository performed Applied Biosystems AmpFLSTR Identifiler testing with PCR amplification to confirm consistency with the published Identifier STR profile for each cell line. Cells were kept in continuous culture for no more than 20 passages. The optimal seeding densities for each of the cell lines at each time point assessed were determined prior to performing the concentration response studies. Briefly, the NCI60 human tumor lines were grown as monolayers in RPMI 1640 medium supplemented with 10% FBS and 2 mmol/L L-glutamine.
An additional 9 lines were from the NCI60 cell line panel including MDA-MB-231 breast carcinoma, MDA-MB-468 breast carcinoma, MCF7 breast carcinoma, Hs578T breast carcinoma, MALME-3M melanoma, SK-MEL-2 melanoma, SK-OV-3 ovarian carcinoma, DU-145 prostate carcinoma, PC-3 prostate carcinoma, all cell lines along with major genetic alterations are listed on Table 2. Pooled donor human umbilical vein endothelial cells (HUVEC, Lonza, cat. CC-2519) and human mesenchymal stem cells (hMSC, Lonza, cat. PT-2501) were purchased from Lonza (Walkersville, MD).
PDMR cell lines were grown in complete medium (DC medium): Dulbecco's modified Eagle's medium (DMEM)/F12 supplemented with 5% fetal bovine serum (FBS), 2 mM L-glutamine, 100 U/mL penicillin and 100 µg/ml streptomycin, 0.4 µg/ml hydrocortisone, 10 ng/ml epidermal growth factor (EGF) recombinant human protein, 24 µg/mL adenine, and 0.1 mg/mL primocin. During culture from frozen stock vials, PDMR cells were cultured in the same medium containing 10 µM Y-27632 (see Table 3). The PDCs were cultured in complete DMEM/F12 media without 10 microM Y-27632 dihydrochloride for at least two passages prior to the screen. The pooled donor HUVEC and hMSC were cultured in endothelial cell growth medium 2 (PromoCell, Heidelberg, Germany, cat. C-22011) and mesenchymal stem cell growth medium 2 (PromoCell, cat. C-28009), respectively. For all experiments, HUVEC and hMSC were used at passages </=5.
[…]
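Further: spheroids exposed to agents for 7 days.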
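Wherever viability, T/C is given: 100% = DMSO vehicle control wells.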

CC(=O)c1c(C)c2cnc(Nc3ccc(N4CCNCC4)cn3)nc2n(C2CCCC2)c1=O was tested, and the viability, T/C (compound 0.000949 µM) was 76.6% and 103%, the viability, T/C (compound 0.003 µM) was 66.5% and 83.4% and the viability, T/C (compound 0.00949 µM) was 62.2% and 75.6%. The viability, T/C (compound 0.03 µM) was 62.2% and 68.8%, the viability, T/C (compound 0.0949 µM) was 63.7% and 65.3% and the viability, T/C (compound 0.3 µM) was 54.1% and 51.8%. The pIC50 (curve of compound) was under 6.52.
For CC(C)n1nc(-c2ccc3oc(N)nc3c2)c2c(N)ncnc21 + CCN1CCN(Cc2ccc(Nc3ncc(F)c(-c4cc(F)c5nc(C)n(C(C)C)c5c4)n3)nc2)CC1, the pIC50 (curve of first compound, second compound 0.01 µM) was 7.80, the pIC50 (curve of first compound, second compound 0.0316 µM) was 7.87 and the pIC50 (curve of first compound, second compound 0.1 µM) was 7.64. For the same molecule, the pIC50 (curve of first compound, second compound 0.316 µM) was 7.61, the pIC50 (curve of first compound, second compound 1 µM) was under 7.00 and the viability, T/C (second compound 0.01 µM, first compound 0.000316 µM) was 91.4%. For the same molecule, the viability, T/C (second compound 0.01 µM, first compound 0.001 µM) was 92.4%, the viability, T/C (second compound 0.01 µM, first compound 0.00316 µM) was 84.2% and the viability, T/C (second compound 0.01 µM, first compound 0.01 µM) was 57.2%. For the same molecule, the viability, T/C (second compound 0.01 µM, first compound 0.0316 µM) was 39.2%, the viability, T/C (second compound 0.01 µM, first compound 0.1 µM) was 33.8% and the viability, T/C (second compound 0.0316 µM, first compound 0.000316 µM) was 79.5%. It also gave a viability, T/C (second compound 0.0316 µM, first compound 0.001 µM) of 80.5%, a viability, T/C (second compound 0.0316 µM, first compound 0.00316 µM) of 82.6% and a viability, T/C (second compound 0.0316 µM, first compound 0.01 µM) of 54.1%. For the same molecule, the viability, T/C (second compound 0.0316 µM, first compound 0.0316 µM) was 40.5%, the viability, T/C (second compound 0.0316 µM, first compound 0.1 µM) was 36.7% and the viability, T/C (second compound 0.1 µM, first compound 0.000316 µM) was 68.7%. The viability, T/C (second compound 0.1 µM, first compound 0.001 µM) was 73.1%, the viability, T/C (second compound 0.1 µM, first compound 0.00316 µM) was 70.3% and the viability, T/C (second compound 0.1 µM, first compound 0.01 µM) was 61.6%. For the same molecule, the viability, T/C (second compound 0.1 µM, first compound 0.0316 µM) was 45.5%, the viability, T/C (second compound 0.1 µM, first compound 0.1 µM) was 35.4% and the viability, T/C (second compound 0.316 µM, first compound 0.000316 µM) was 70.6%. It also gave a viability, T/C (second compound 0.316 µM, first compound 0.001 µM) of 56.9%, a viability, T/C (second compound 0.316 µM, first compound 0.00316 µM) of 66.1% and a viability, T/C (second compound 0.316 µM, first compound 0.01 µM) of 54.1%. It also gave a viability, T/C (second compound 0.316 µM, first compound 0.0316 µM) of 48.8%, a viability, T/C (second compound 0.316 µM, first compound 0.1 µM) of 40% and a viability, T/C (second compound 1 µM, first compound 0.000316 µM) of 78.3%. For the same molecule, the viability, T/C (second compound 1 µM, first compound 0.001 µM) was 75.9%, the viability, T/C (second compound 1 µM, first compound 0.00316 µM) was 64.8% and the viability, T/C (second compound 1 µM, first compound 0.01 µM) was 68.4%. For the same molecule, the viability, T/C (second compound 1 µM, first compound 0.0316 µM) was 65.5% and the viability, T/C (second compound 1 µM, first compound 0.1 µM) was 50.7%.
For Cn1ncnc1[C@H]1c2n[nH]c(=O)c3cc(F)cc(c23)N[C@@H]1c1ccc(F)cc1, the viability, T/C (compound 0.000316 µM) was 123% and 91.8%, the viability, T/C (compound 0.001 µM) was 81.7% and 109% and the viability, T/C (compound 0.00316 µM) was 80.4% and 90.1%. The viability, T/C (compound 0.01 µM) was 73.3% and 91.3%, the viability, T/C (compound 0.0316 µM) was 79.7% and 80.1% and the viability, T/C (compound 0.1 µM) was 70.6% and 68.1%. It also gave a pIC50 (curve of compound) of under 7.00.
In the case of CC1(C)CCC(CN2CCN(c3ccc(C(=O)NS(=O)(=O)c4ccc(NCC5CCOCC5)c([N+](=O)[O-])c4)c(Oc4cnc5[nH]ccc5c4)c3)CC2)=C(c2ccc(Cl)cc2)C1, the viability, T/C (compound 0.0316 µM) was 79.8% and 92%, the viability, T/C (compound 0.1 µM) was 86.8% and 104% and the viability, T/C (compound 0.316 µM) was 90.3% and 99%. The viability, T/C (compound 1 µM) was 93.9% and 100%, the viability, T/C (compound 3.16 µM) was 105% and 112% and the viability, T/C (compound 10 µM) was 5.27% and 4.22%. For the same molecule, the pIC50 (curve of compound) was 5.26 and 5.23.
